{
  "source": "paper PMC9829398",
  "about": "(Plant Biotechnology Journal, 2022)",
  "key": {"FER‐CD [1]": {"target": "T1, FER‐CD (Arabidopsis thaliana, UniProt Q9SCZ4)", "T1 sequence (Q9SCZ4 469-895)": "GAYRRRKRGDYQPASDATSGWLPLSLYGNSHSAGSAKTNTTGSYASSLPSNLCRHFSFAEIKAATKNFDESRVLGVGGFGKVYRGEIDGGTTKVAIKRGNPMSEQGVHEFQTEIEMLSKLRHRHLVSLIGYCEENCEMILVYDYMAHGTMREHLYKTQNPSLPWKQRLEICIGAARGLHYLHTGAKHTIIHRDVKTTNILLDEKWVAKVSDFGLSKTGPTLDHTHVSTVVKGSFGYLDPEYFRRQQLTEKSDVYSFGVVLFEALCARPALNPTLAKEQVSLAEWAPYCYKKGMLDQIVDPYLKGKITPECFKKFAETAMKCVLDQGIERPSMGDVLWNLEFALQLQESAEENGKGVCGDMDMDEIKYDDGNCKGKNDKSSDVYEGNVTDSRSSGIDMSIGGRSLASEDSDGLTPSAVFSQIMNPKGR", "conditions": "read-out: Equilibrium dissociation constant (KD) of binding to FER-CD; MST, 25°C, 100 nM labelled FER-CD, means ± SEs (n = 3)"}, "THE1‐CD": {"system": "THE1‐CD", "experiment": "THE1-CD kinase activity (autophosphorylation)", "format": "biochemical, Arabidopsis thaliana", "conditions": "5 μM"}, "FRK1": {"system": "FRK1", "conditions": "5 μM for 24 h, confocal microscopy"}, "HERK1‐CD": {"system": "HERK1‐CD", "experiment": "HERK1-CD kinase activity (autophosphorylation)", "format": "biochemical, Arabidopsis thaliana", "conditions": "5 μM"}, "FER‐CD [2]": {"target": "T1, FER‐CD", "experiment": "biochemical"}, "[3]": {"system": "FER cytoplasmic domain (FER‐CD)", "experiment": "FER-CD kinase activity (autophosphorylation), high-throughput screening, Kinase-Lumi luminescent ATP consumption", "format": "biochemical, Arabidopsis thaliana", "conditions": "in vitro autophosphorylation"}, "ANJEA‐CD": {"system": "ANJEA‐CD", "experiment": "ANJEA-CD kinase activity (autophosphorylation)", "format": "biochemical, Arabidopsis thaliana", "conditions": "5 μM"}, "[4]": {"system": "ROS in Col‐0 and fer‐4 roots", "experiment": "ROS detection in plant roots (H2DCF-DA fluorescence)", "conditions": "5 μM for 15 min, vs DMSO and lapatinib"}, "PER5": {"system": "PER5", "conditions": "5 μM for 24 h, confocal microscopy"}, "Ralstonia solanacearum [5]": {"system": "Ralstonia solanacearum", "format": "in vivo", "conditions": "Arabidopsis seedlings pretreated with 5 μM, 4 days after inoculation"}, "Ralstonia solanacearum [6]": {"system": "Ralstonia solanacearum", "format": "in vivo, tomato", "conditions": "roots pretreated twice with 3 mL of 5 μM"}, "Ralstonia solanacearum [7]": {"system": "Ralstonia solanacearum", "format": "in vivo, tobacco", "conditions": "roots pretreated twice with 3 mL of 5 μM"}, "Meloidogyne incognita [8]": {"system": "Meloidogyne incognita", "experiment": "Rice root-knot nematode disease, preventive root treatment", "format": "in vivo", "conditions": "in vivo"}, "Meloidogyne incognita [9]": {"system": "Meloidogyne incognita", "experiment": "Established rice root-knot nematode disease (inhibitor applied after inoculation)", "format": "in vivo", "conditions": "in vivo"}, "Ralstonia solanacearum [10]": {"system": "Ralstonia solanacearum", "format": "in vivo, tobacco", "conditions": "5 μM irrigated twice two days after inoculation"}, "PKA": {"system": "PKA", "set-up": "method as in Omura et al., [2018]", "conditions": "ref Omura et al., [2018]; cited from earlier work"}, "PKC": {"system": "PKC", "set-up": "method as in Omura et al., [2018]", "conditions": "ref Omura et al., [2018]; cited from earlier work"}, "[11]": {"system": "Arabidopsis Col‐0 and fer‐4 seedlings", "experiment": "Growth of Arabidopsis seedlings (root length, shoot fresh weight)", "conditions": "5 μM for 3 days, vs ddH2O (mock) and lapatinib"}, "tobacco": {"system": "tobacco", "experiment": "Growth of tobacco (shoot and root fresh weight, Day 25)", "conditions": "5 μM irrigated twice"}, "NtFER‐CD": {"system": "NtFER‐CD", "experiment": "NtFER-CD kinase activity (autophosphorylation)", "format": "biochemical, Nicotiana tabacum", "conditions": "tobacco FER homologue"}},
  "note": "Read-outs that look alike come from different tables or passages of the source.",
  "data": [
    {"smiles": "Nc1ncnc2c1ncn2[C@@H]1O[C@H](COP(=O)(O)OP(=O)(O)OP(=O)(O)O)[C@@H](O)[C@H]1O", "note": "[ATP]", "values": [
      {"measurement": "Kd", "setting": "FER‐CD [1]", "value": 18400, "unit": "nM"}
    ]},
    {"smiles": "Cc1cc(Nc2ncc(F)c(NC3C4C=CC(C4)C3C(N)=O)n2)ccc1N1CCN(C)CC1", "note": "(stereo not drawn) [Cenisertib]", "values": [
      {"measurement": "Inhibition rate of THE1-CD kinase activity", "setting": "THE1‐CD", "value": "higher than 88%"},
      {"measurement": "Expression of FRK1 in roots", "setting": "FRK1", "value": "increased the expression of FRK1"},
      {"measurement": "Inhibition rate of HERK1-CD kinase activity", "setting": "HERK1‐CD", "value": "higher than 88%"},
      {"measurement": "Kd", "setting": "FER‐CD [2]", "value": 1970, "unit": "nM"},
      {"measurement": "Effect on FER kinase activity", "setting": "[3]", "value": "inhibited the kinase activity of FER"},
      {"measurement": "Inhibition rate of ANJEA-CD kinase activity", "setting": "ANJEA‐CD", "value": "higher than 88%"},
      {"measurement": "Production of ROS in Col-0 roots", "setting": "[4]", "value": "had no effect on ROS levels"},
      {"measurement": "Expression of PER5 in roots", "setting": "PER5", "value": "did not affect the expression of PER5"},
      {"measurement": "Cotyledon bleaching caused by R. solanacearum", "setting": "Ralstonia solanacearum [5]", "value": "turned white"}
    ]},
    {"smiles": "CN[C@@H]1C[C@H]2O[C@@](C)([C@@H]1OC)n1c3ccccc3c3c4c(c5c6ccccc6n2c5c31)C(=O)NC4", "note": "[Staurosporine]", "values": [
      {"measurement": "Expression of FRK1 in roots", "setting": "FRK1", "value": "observably enhanced the expression of FRK1"},
      {"measurement": "Root cell morphology", "setting": "FRK1", "value": "caused expansion of the root cells"},
      {"measurement": "Control of tomato bacterial wilt", "setting": "Ralstonia solanacearum [6]", "value": "alleviated soil‐borne diseases"},
      {"measurement": "Control of tobacco bacterial wilt", "setting": "Ralstonia solanacearum [7]", "value": "alleviated soil‐borne diseases"},
      {"measurement": "Control of rice root-knot nematode disease", "setting": "Meloidogyne incognita [8]", "value": "alleviated soil‐borne diseases"},
      {"measurement": "Effect on established rice root-knot nematode disease", "setting": "Meloidogyne incognita [9]", "value": "could not completely prevent the occurrence of the diseases or cure already diseased plants"},
      {"measurement": "Effect on FER kinase activity", "setting": "[3]", "value": "inhibited the kinase activity of FER"},
      {"measurement": "Effect on established tobacco bacterial wilt", "setting": "Ralstonia solanacearum [10]", "value": "could not completely prevent the occurrence of the diseases or cure already diseased plants"},
      {"measurement": "IC50", "setting": "PKA", "value": "[…]"},
      {"measurement": "Production of ROS in Col-0 roots", "setting": "[4]", "value": "significantly increased the production of ROS"},
      {"measurement": "Expression of PER5 in roots", "setting": "PER5", "value": "elevated the expression of PER5 to a certain extent"},
      {"measurement": "IC50", "setting": "PKC", "value": "[…]"},
      {"measurement": "Growth of roots and shoots of Arabidopsis Col-0 seedlings", "setting": "[11]", "value": "severely inhibited root and shoot growth"},
      {"measurement": "Cotyledon bleaching caused by R. solanacearum", "setting": "Ralstonia solanacearum [5]", "value": "effectively prevented the cotyledon bleaching"},
      {"measurement": "Growth (biomass) of tobacco shoots and roots", "setting": "tobacco", "value": "did not observably affect the biomass"}
    ]},
    {"smiles": "CS(=O)(=O)CCNCc1ccc(-c2ccc3ncnc(Nc4ccc(OCc5cccc(F)c5)c(Cl)c4)c3c2)o1", "note": "[lapatinib]", "values": [
      {"measurement": "Expression of FRK1 in roots", "setting": "FRK1", "value": "did not affect the expression levels"},
      {"measurement": "Inhibitory effect on NtFER-CD kinase activity", "setting": "NtFER‐CD", "value": "ineffective"},
      {"measurement": "Effect on FER kinase activity", "setting": "[3]", "value": "did not affect FER kinase activity"},
      {"measurement": "Expression of PER5 in roots", "setting": "PER5", "value": "did not affect the expression levels"},
      {"measurement": "Cotyledon bleaching caused by R. solanacearum", "setting": "Ralstonia solanacearum [5]", "value": "turned white"}
    ]}
  ]
}
